Source: patent publication US11690396B2, “Electronic cigarette compositions, devices, and related methods” (ZANOPRIMA LIFESCIENCES LIMITED, priority 2018, dated 2023)
Values after ≈ are worked out from the molar mass of the structure shown.

Columns and labels:
[1] = Solubility of carbon dioxide in nicotine solutions with low propylene glycol (Example 5); assay type: physicochemical; details: for Added CO2: ~50.0 g solution, average of two experiments
Excerpt: Using the same methodology as that of Example 3, solutions of nicotine in glycerol, nicotine, water, and propylene glycol (if present) were made as detailed in the Table 4. In Table 4, propylene glycol is referred to as “PG”. The propylene glycol, when present, originated from the addition of a tobacco flavouring composition. The tobacco flavouring composition, referred to in Table 4 as “TF”, (made up of tobacco flavouring dissolved/dispersed in propylene glycol) included propylene glycol at 65% by weight. […] For each experiment, the solution used was within 0.2 g of 50.0 g. As with Example 3, the solutions were weighed before and after the addition of the CO2, and the change in weight before and after addition of the CO2 enabled the amount of CO2 incorporated into the solution to be derived. The amount of carbon dioxide reported as being incorporated into solution is the average result achieved across two experiments.

[2] = Solubility of carbon dioxide in nicotine solutions (Example 3, weight change); assay type: physicochemical
Description: Into weighed plastic 500 ml bottles containing approximately 50 g of a solution of nicotine in glycerol/propylene glycol according to Table 3 were added 4-5 g solid carbon dioxide (dry-ice), sufficient to raise the pressure to 4-5 bar. The mixtures were held under pressure for 3 days before the pressure was released, and the mixtures were then stood at ambient temperature for 48 hours and then the new weight of the solution measured. The change in weight before and after addition of the CO2 enable the amount of CO2 incorporated into the solution to be derived, as well as the molar ratio of CO2 to nicotine.

[3] = glycerol 78.3, nicotine 5, water 8.7, TF 8, PG 5.2 wt %
[4] = glycerol 81, nicotine 2, water 9, TF 8, PG 5.2 wt %
[5] = glycerol 82.65, nicotine 5, water 4.35, TF 8, PG 5.2 wt %
[6] = glycerol 85.5, nicotine 2, water 4.5, TF 8, PG 5.2 wt %
[7] = glycerol 85.5, nicotine 5, water 9.5, TF 0, PG 0 wt %
[8] = glycerol 88.2, nicotine 2, water 9.8, TF 0, PG 0 wt %
[9] = glycerol 90.25, nicotine 5, water 4.75, TF 0, PG 0 wt %
[10] = glycerol 93.1, nicotine 2, water 4.9, TF 0, PG 0 wt %

SMILES: O=C=O [CO2, carbon dioxide]
- Solubility of CO2 [1, 3]: 13 g/kg
- Solubility of CO2 ([1]; glycerol 78.3, nicotine 5, water 8.7, TF 8, PG 5.2 wt %, estd density 1.21 kg/l): 16 mg/mL
- Added CO2 [1, 3]: 0.66 g
- Solubility of CO2 [1, 4]: 12 g/kg
- Solubility of CO2 ([1]; glycerol 81, nicotine 2, water 9, TF 8, PG 5.2 wt %, estd density 1.21 kg/l): 14 mg/mL
- Added CO2 [1, 4]: 0.58 g
- Solubility of CO2 [1, 5]: 16 g/kg
- Solubility of CO2 ([1]; glycerol 82.65, nicotine 5, water 4.35, TF 8, PG 5.2 wt %, estd density 1.22 kg/l): 19 mg/mL
- Added CO2 [1, 5]: 0.79 g
- Solubility of CO2 [1, 6]: 11 g/kg
- Solubility of CO2 ([1]; glycerol 85.5, nicotine 2, water 4.5, TF 8, PG 5.2 wt %, estd density 1.23 kg/l): 13 mg/mL
- Added CO2 [1, 6]: 0.54 g
- Solubility of CO2 [1, 7]: 16 g/kg
- Solubility of CO2 ([1]; glycerol 85.5, nicotine 5, water 9.5, TF 0, PG 0 wt %, estd density 1.22 kg/l): 20 mg/mL
- Added CO2 [1, 7]: 0.82 g
- Solubility of CO2 [1, 8]: 11 g/kg
- Solubility of CO2 ([1]; glycerol 88.2, nicotine 2, water 9.8, TF 0, PG 0 wt %, estd density 1.23 kg/l): 14 mg/mL
- Added CO2 [1, 8]: 0.56 g
- Solubility of CO2 [1, 9]: 18 g/kg
- Solubility of CO2 ([1]; glycerol 90.25, nicotine 5, water 4.75, TF 0, PG 0 wt %, estd density 1.24 kg/l): 23 mg/mL
- Added CO2 [1, 9]: 0.91 g
- Solubility of CO2 [1, 10]: 10 g/kg
- Solubility of CO2 ([1]; glycerol 93.1, nicotine 2, water 4.9, TF 0, PG 0 wt %, estd density 1.25 kg/l): 13 mg/mL
- Added CO2 [1, 10]: 0.51 g
- Solubility CO2 ([2]; 70:30 glycerol:propylene glycol, nicotine 0 g/kg, 4-5 bar 3 days, then 48 h ambient): 3.8 g/kg
- Added CO2 ([2]; 70:30 glycerol:propylene glycol, nicotine 0 g/kg, 50.00 g solution, 4-5 bar 3 days, then 48 h ambient): 0.19 g
- Solubility CO2 ([2]; 70:30 glycerol:propylene glycol, nicotine 0 g/kg, estimated density 1.19 kg/L): 4.5 mg/mL (≈ 102 mM)
- Molar ratio CO2/nicotine ([2]; 70:30 glycerol:propylene glycol, nicotine 4 g/kg (0.4%)): 8.77 mol/mol
- Added CO2 ([2]; 70:30 glycerol:propylene glycol, nicotine 4 g/kg (0.4%), 49.96 g solution, average of two results): 0.48 g
- Solubility CO2 ([2]; 70:30 glycerol:propylene glycol, nicotine 4 g/kg (0.4%), average of two results): 9.5 g/kg
- Solubility CO2 ([2]; 70:30 glycerol:propylene glycol, nicotine 4 g/kg (0.4%), estimated density 1.19 kg/L): 11.3 mg/mL (≈ 257 mM)
- weight increase (CO2 incorporated) ([2]; comparative: 20 g pure nicotine charged similarly with carbon dioxide): did not result in any weight increase at all
